# What was measured:
# S1P = S1P levels in dorsal horn tissue by ELISA; format: in vivo, rat; settings: for morphine-induced increased production of S1P in dorsal horn tissues: sc
# Male Sprague Dawley rats [1] = assay: Antinociceptive tolerance (tail flick after acute morphine) in rats with chronic s.c. morphine or saline infusion; format: in vivo, rat; settings: for development of morphine antinociceptive tolerance: daily i.th for 6 days with s.c. morphine infusion, Myr 0.3, FB1 1, D609 1, DMS 0.3, SK-1 0.3 μM/day; for effect on antinociceptive responses to acute morphine: drug alone vs Veh-Sal; for effect on antinociceptive responses to acute morphine / % MPE (Tail-flick): day 6; for % MPE (Tail-flick): drug given alone i.th daily over 6 days to saline-infused rats, response to acute morphine, mean ± SEM; for effect on tail flick latencies when given alone: daily i.th 3 μM/day, saline-infused rats, vs vehicle group
# Protocol: (§1) Osmotic pump implantation. Rats, under light isoflurane anesthesia, were subcutaneously implanted (in the interscapular region) with osmotic pumps (Alzet 2001; Alza, Mountain View Calif.), to deliver saline at 1 μl/h or morphine at 75 μg μl^−1h^−1 over 7 days as described (Vera-Portocarrero et al., 2006). Minipumps were filled according to manufacturer's specifications. The use of the osmotic pump ensures a continuous delivery of morphine avoiding intermittent periods of withdrawal. The integrity of the pump delivery system was reexamined at the end of each experiment when the spinal cords were harvested.
# (§2) Drug administration. The test substances fumonisin B1 (FB 1, Sigma-Aldrich, St. Louis, Mo.), myriocin (Myr Sigma-Aldrich, St. Louis, Mo.), D609 (Tricyclodecan-9-ylxanthogenate, K; Calbiochem, San Diego, Calif.), DMS (N,N-Dimethylsphingosine, Caymen Chemical, Ann Arbor, Mich.), SK-I 2-(p-hydroxyanilino)-4-(p-chlorophenyl) thiazole, Calbiochem, San Diego, Calif.) or their vehicle (0.5% in DMSO) were delivered by intrathecal (i.th) injection in rats chronically implanted with i.th cannulas as described previously (Storkson et al., 1996). Test substances were injected i.th once a day for 6 days in a total volume of 10 μl followed by a 10 μl flush with sterile physiological saline.
# After the Hargreave's test, the development of antinociceptive tolerance was determined in all animals as follows. Acute nociception. The tail flick test which measures, withdrawal latencies of the tail from a noxious radiant heat source was used to measure thermal nociceptive sensitivity with baseline latencies of 4-5 sec and it cut-off time of 10 sec to prevent tissue injury (D'Amour, 1941). […]. Test substances or vehicle were given on day 0-6 after completion of the behavioral tests. At the required time points, after the behavioral tests, spinal cord tissues from the lumbar, enlargement segment of the spinal cord (L4-L6) and dorsal horn tissues were removed and tissues processed for immunohistochemical, Western blot and biochemical analysis. All experiments were conducted with the experimenters blinded to treatment conditions. […]
# Male Sprague Dawley rats [2] = assay: Thermal hyperalgesia (Hargreaves paw-withdrawal latency) in rats with chronic s.c. morphine or saline infusion; format: in vivo, rat; settings: for development of morphine-induced hyperalgesia: daily i.th for 6 days with s.c. morphine infusion, Myr 0.3, FB1 1, D609 1, DMS 0.3, SK-1 0.3 μM/day; for effect on paw-withdrawal latencies: drug alone vs Veh-Sal; for effect on paw-withdrawal latencies / Paw-Withdrawal Latency: day 6; for Paw-Withdrawal Latency: drug given alone i.th daily over 6 days to saline-infused rats, mean ± SEM; for effect on hindpaw withdrawal latencies when given alone: daily i.th 3 μM/day, saline-infused rats, vs vehicle group
# Protocol: as §1, §2
# Behavioral tests. Thermal hyperalgesia. The method of Hargreaves and colleagues was used to assess changes in baseline nociceptive responses to a thermal nociceptive stimulus (Hargreaves et al., 1988). Animals were allowed to acclimate within a Plexiglas enclosure on a clear glass plate in a quiet testing room. A radiant heat source is focused onto the plantar aspect of the hindpaw with baseline latencies of 18-20 sec. and a maximal cutoff time of 20 sec to prevent tissue damage. The paw-withdrawal latency is determined by a motion detector activated by the paw withdrawal, stopping a timer. Foot withdrawal latencies were taken on the day before implantation of the minipumps (baseline) and subsequently on days 1, 3 and 6 of the experimental period to determine whether morphine-tolerant animals develop increased sensitivity to thermal stimulation. A significant (P<0.05) reduction in paw-withdrawal latency over time and before implantation of the osmotic minipump is characterized as thermal hyperalgesia. […]
# S1P5 = S1P5 (Homo sapiens, UniProt Q9H228); settings: relative to S1P1; cited from earlier work
# S1P2 = S1P2 (Homo sapiens, UniProt O95136); settings: cited from earlier work
# murine S1P1 subtype = murine S1P1 subtype (Mus musculus, UniProt O08530); settings: cited from earlier work
# rats [3] = assay: Ceramide-induced thermal hyperalgesia (intraplantar); format: in vivo, rat
# [4] = tested on: other known S1P receptor subtypes; settings: at doses as high as 10-20 μM; cited from earlier work
# rats [5] = assay: Carrageenan-induced thermal hyperalgesia; format: in vivo, rat; settings: W146, FIG. 14
# [6] = S1P-induced thermal hyperalgesia (intraplantar); format: in vivo; settings: intraplantar W146 15 minutes before intraplantar S1P
# [7] = molecular target: S1P1 subtype, human receptor (Homo sapiens, UniProt P21453); settings: GTP-γS binding assay; cited from earlier work
# Male Sprague Dawley rats [8] = assay: Paclitaxel-induced neuropathic pain (mechano-allodynia, mechano-hyperalgesia); format: in vivo, rat
# Protocol: Paclitaxel-Induced: Paclitaxcel-induced pain was studied by means of the well-characterized rat model developed by Bennett in which repeated intraperitoneal (i.p) injections of low doses of paclitaxel are administered to induce neuropathic pain (methano-allodynia and mechano-hyperalgesia) with little systemic toxicity or motor impairment (Polomano et al., Pain 94, 293-304 (2001)). The behavioral responses last for several weeks to months, thus modeling painful neuropathies in patients. Paclitaxel (Parentapharm. Yardley, Pa.) or its vehicle (Cremophor EL and 95% dehydrated ethanol in 1:1 ratio) was injected i.p in rats on four alternate days (day 0, 2, 4 and 6 with a final cumulative dose of 4 mg/kg). MnTE-2-PyP^5+, W146 (source), W140 (source) or their vehicle were delivered by intrathecal (i.th) injection (total volume of 10 μl followed by a 10 μl flush with sterile physiological saline) in rats chronically implanted with i.th cannulas using the L5/L6 lumbar approach, as described previously and Commonly used for drug delivery (Ramos et al. Neuroscience 169, 1888-1900 (2010); Schoeniger-Skinner, Brain Behav Immun 21, 660-667 (2007); Doyle, et al. Neurosci Lett (2010)). Drugs were injected 30 min before paclitaxel or its vehicle from day (D) 0 and then daily up to D15. In another set of experiments, Fingolimod (Fingolimod, Cayman Chemicals, Ann Arbor, Mich.) or its vehicle (1.2% ethanol in saline) were given by intraperitoneal injection (i.p., 0.2 ml) from D0 to D15; behavioral testing was carried out on D0 and at baseline and subsequently on D12, D16 and D22.
# Behavioral testing: Baseline values were taken from all rats on day 0 Baseline. Drugs or vehicles under investigation were then given, followed 30 min later by a chemotherapeutic or vehicle. Behavioral testing was subsequently carried out on D12, D16 and D22.
# Mechano-Allodynia and mechano-hyperalgesia: Mechanical withdrawal thresholds were assessed with an automated electronic version of the von Frey test (dynamic plantar aesthesiometer, model 37450; Ugo Basile, Milan, Italy). Each rat was placed in a Plexiglas chamber (28×40×35-cm, wire mesh floor) and allowed to acclimate for fifteen minutes. […] The pressure evoking a clear voluntary hind-paw withdrawal response (normally 40-45 g) was recorded automatically and taken as the mechanical threshold index. Mechanical threshold was assessed three times at each time point to yield a mean value, which is reported as mean absolute threshold (grams, g). […] Mechanical-hyperalgesia was assessed by the Randall and Sellitto paw pressure test 6 using an Ugo-Basile analgesiometer, which applies a linearly increasing mechanical force to the dorsum of the rat's hind paw. […]
# rats [9] = settings: rat, in vivo
# Protocol: (§3) Tail flick latency (s) was tested before and 30 min after morphine (FIG. 26).
# rats [10] = assay: Antinociceptive response to acute morphine (tail flick latency); format: in vivo, rat; settings: W146 1 pM i.th 15 min before morphine 1, 3 or 6 mg/kg i.p; tail flick 30 min after morphine
# Protocol: Acute nociception. The tail flick test, which measures withdrawal latencies of the tail from a noxious radiant heat source, was used to measure thermal nociceptive sensitivity with baseline latencies of 2-3 sec and a cut-off time of 10 sec to prevent tissue injury (D'Amour, J Pharmacol Exp Ther 72, 74-79 (1941)). […] Test substances or vehicle were given on day 0 through 6 after completion of the behavioral tests.
# as §3
# [11] = daily intrathecal, W146 0.3-3 μM/day, W140 3 μM/day
# [12] = 3 μM/day i.th co-administered with morphine infusion
# S1P5, sequence (Q9H228 whole entry, species assumed): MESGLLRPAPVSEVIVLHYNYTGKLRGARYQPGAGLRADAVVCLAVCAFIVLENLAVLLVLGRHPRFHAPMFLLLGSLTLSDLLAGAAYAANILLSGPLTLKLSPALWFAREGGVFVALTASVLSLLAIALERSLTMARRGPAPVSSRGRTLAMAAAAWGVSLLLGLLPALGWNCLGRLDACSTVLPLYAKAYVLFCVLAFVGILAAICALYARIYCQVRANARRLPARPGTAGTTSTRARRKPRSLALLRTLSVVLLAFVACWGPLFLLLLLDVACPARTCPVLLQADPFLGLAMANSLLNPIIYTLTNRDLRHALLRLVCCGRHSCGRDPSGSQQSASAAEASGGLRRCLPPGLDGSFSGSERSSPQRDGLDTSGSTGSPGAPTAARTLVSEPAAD
# S1P2, sequence (O95136 whole entry, species assumed): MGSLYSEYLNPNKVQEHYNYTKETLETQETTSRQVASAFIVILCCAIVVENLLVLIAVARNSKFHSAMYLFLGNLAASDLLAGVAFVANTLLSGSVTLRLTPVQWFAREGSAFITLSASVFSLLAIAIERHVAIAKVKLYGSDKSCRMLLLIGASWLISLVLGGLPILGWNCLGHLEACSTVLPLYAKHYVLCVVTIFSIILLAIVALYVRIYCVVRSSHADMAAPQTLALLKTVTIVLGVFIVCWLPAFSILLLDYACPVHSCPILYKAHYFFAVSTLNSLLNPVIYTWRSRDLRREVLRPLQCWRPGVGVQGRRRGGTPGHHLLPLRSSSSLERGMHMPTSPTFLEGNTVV
# S1P1 subtype, human receptor, sequence (P21453 whole entry): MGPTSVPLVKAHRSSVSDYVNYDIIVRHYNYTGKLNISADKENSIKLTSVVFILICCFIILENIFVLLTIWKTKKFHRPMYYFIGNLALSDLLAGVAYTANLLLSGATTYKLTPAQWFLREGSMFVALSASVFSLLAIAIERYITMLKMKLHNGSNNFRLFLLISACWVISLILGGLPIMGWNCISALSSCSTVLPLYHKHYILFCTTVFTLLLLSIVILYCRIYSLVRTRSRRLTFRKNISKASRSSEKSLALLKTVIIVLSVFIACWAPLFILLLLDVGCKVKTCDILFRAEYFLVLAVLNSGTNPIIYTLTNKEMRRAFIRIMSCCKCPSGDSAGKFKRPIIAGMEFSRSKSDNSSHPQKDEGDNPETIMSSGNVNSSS
# murine S1P1 subtype, sequence (O08530 whole entry): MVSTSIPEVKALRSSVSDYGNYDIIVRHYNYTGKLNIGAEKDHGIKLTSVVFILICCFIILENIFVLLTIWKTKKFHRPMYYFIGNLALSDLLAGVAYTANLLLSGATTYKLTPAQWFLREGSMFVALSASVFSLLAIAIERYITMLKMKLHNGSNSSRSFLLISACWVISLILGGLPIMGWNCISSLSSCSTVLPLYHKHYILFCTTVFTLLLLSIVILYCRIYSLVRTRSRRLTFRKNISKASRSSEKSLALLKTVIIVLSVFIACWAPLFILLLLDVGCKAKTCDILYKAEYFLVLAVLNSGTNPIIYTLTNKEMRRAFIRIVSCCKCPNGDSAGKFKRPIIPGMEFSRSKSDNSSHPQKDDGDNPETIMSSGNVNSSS
Compound,"S1P (pg/mg tissue) (S1P; rat, in vivo)","effect on S1P levels in spinal cord tissues (S1P; rat, in vivo)","morphine-induced increased production of S1P in dorsal horn tissues (S1P; rat, in vivo)",development of morphine antinociceptive tolerance (Male Sprague Dawley rats [1]),effect on antinociceptive responses to acute morphine (Male Sprague Dawley rats [1]),% MPE (Tail-flick) (Male Sprague Dawley rats [1]) [%],development of morphine-induced hyperalgesia (Male Sprague Dawley rats [2]),effect on paw-withdrawal latencies (Male Sprague Dawley rats [2]),Paw-Withdrawal Latency (Male Sprague Dawley rats [2]) [s],effect on tail flick latencies when given alone (Male Sprague Dawley rats [1]),effect on hindpaw withdrawal latencies when given alone (Male Sprague Dawley rats [2]),other results
"S=C([S-])OC1CC2CC1C1CCCC21.[K+] (stereo not drawn) [D609, Tricyclodecan-9-ylxanthogenate, K]",1.5 ± 0.06,did not affect,blocked,blocked,did not affect,92 ± 3.0,blocked,did not affect,19 ± 0.7,,,
"CCCC[C@@H](C)[C@@H](OC(=O)C[C@@H](CC(=O)O)C(=O)O)[C@H](C[C@@H](C)C[C@H](O)CCCC[C@@H](O)C[C@H](O)[C@H](C)N)OC(=O)C[C@@H](CC(=O)O)C(=O)O [FB1, fumonisin B1]",1.4 ± 0.06,did not affect,blocked,blocked,did not affect,92 ± 3.2,blocked,did not affect,19 ± 0.8,,,
CCCCCCCCc1ccc(CC[C@](N)(CO)COP(=O)(O)O)cc1 [Fingolimod-P],,,,,,,,,,,,binding affinity for S1P5 (S1P5): slightly lower affinity; binding affinity for S1P2 (S1P2): no reported affinity
"CCCCCCC(=O)CCCCCC/C=C/C[C@@H](O)[C@H](O)[C@@](N)(CO)C(=O)O [Myr, myriocin]",1.2 ± 0.05,,blocked,blocked,did not affect,91 ± 3.0,blocked,did not affect,19 ± 0.5,,,"effect on S1P levels in spinal cord tissues (S1P; drug alone vs Veh-Sal, day 6): did not affect"
CCCCCCc1cccc(NC(=O)[C@@H](N)CCP(=O)(O)O)c1 [W140],,,,,,,,,,had no effect,had no effect,
CCCCCCc1cccc(NC(=O)[C@H](N)CCP(=O)(O)O)c1 [W146],,,,,,,,,,had no effect,had no effect,"potency at the murine S1P1 subtype relative to human (murine S1P1 subtype): equipotency; effect when given alone (no ceramide) (rats [3]): had no effect; ceramide-induced thermal hyperalgesia (rats [3]; LT1002 242 μg, LT1017 286 μg, W146 0.3, 0.6 or 1.2 μg, W140 1.2 μg): inhibited; antagonistic or agonistic activity against other S1P receptor subtypes [4]: No-antagonistic (or agonistic) activity; carrageenan-induced hyperalgesia (rats [5]): blocks; development of S1P-induced thermal hyperalgesia [6]: blocked; Ki [7]: ~80 nM; baseline withdrawal thresholds when given alone (Male Sprague Dawley rats [8]; W146 3 μM/day, highest dose tested): did not affect; development of paclitaxel-induced mechano-allodynia (Male Sprague Dawley rats [8]; [11]): attenuated in a dose-dependent manner; development of paclitaxel-induced mechano-hyperalgesia (Male Sprague Dawley rats [8]; [11]): attenuated in a dose-dependent manner; reversal of Paclitaxel-induced neuropathic pain (Male Sprague Dawley rats [8]; given i.p on day 16, behavioral testing 60 minutes later): reverses; block of development of antinociceptive tolerance (Male Sprague Dawley rats [1]; [12]): > 90%; observable side effects (rats [9]): No observable side effects; block of development of thermal hyperalgesia (Male Sprague Dawley rats [2]; [12]): > 90%; effect on dose-response to acute morphine (rats [10]): did not modify"

# — US8945549B2, “Methods of treating antinociceptive tolerance” (Saint Louis University, priority 2010, dated 2015)
